Tests used:
[1] = system: rats; assay: Intratracheal instillation of MALP-2 in rats, cells determined by bronchoalveolar lavage (BAL); details: 3 μg instilled into the trachea
Description: 1) 3 μg of MALP-2 (an S-(2,3-bisacyloxypropyl)-cysteine peptide) are instilled into the trachea of rats. At various times after treatment, cells from the lung lumen are determined by means of bronchoalveolar lavage (BAL).

[2] = system: rats; assay: Repeated inhalation of MALP-2 by mask in rats; assay type: in vivo, rat; details: 30 μg inhaled by mask, six occasions at one-week intervals
Description: 2) With the aid of a mask, rats are made to inhale 30 μg doses of MALP-2 on six occasions at one-week intervals.

[3] = intraperitoneal injection of a few μg; cited from earlier work

In the case of “MALP-2: macrophage-activating lipopeptide (an S-(2,3-bisacyloxypropyl)-cysteine peptide) isolated from Mycoplasma fermentans”, the “adverse effect on the animals” value [1] is reported as “not detectable”, the “duration of the increase in leukocyte number” value [1] is reported as “lasts for a few days” and the “food consumption, bodyweight, activity and behaviour” value [1] is reported as “not noteworthy”. The “number of leukocytes in the respiratory tracts and the alveolar space (BAL)” value ([1]; after a few hours) was “increase in the number of leukocytes”, the “clinical condition of the animals” value [2] was “clinically not noteworthy” and the “lymphatic tissue in the bronchial mucosa” value [2] was “increase in the lymphatic tissue”. For the same substance, the leukocyte infiltration [3] was “has brought about leukocyte infiltration”.
